Assay results taken from patent publication US12194034B2, “Neutrophil exocytosis inhibitors” (IMMUNYX PHARMA LTD., priority 2021, dated 2025).

How the values were obtained:
human neutrophils [1] = conditions: by inhibiting NAD(P)H; cited from earlier work
human neutrophils [2] = conditions: cited from earlier work
human neutrophils [3] = assay: NETosis assay; format: cell-based; conditions: PMA 50 nM; for PMA-induced NETosis (NETosis positive events over time): T1/T3 10 μM, Trifluoperazine 100 ng/ml, Incucyte, 8 hr
Description: NETosis assay: The assay was carried out as previously described (Gupta et al., “A High-Throughput Real-Time Imaging Technique To Quantify NETosis and Distinguish Mechanisms of Cell Death in Human Neutrophils.”, J Immunol. 2018; 200:869-879, herein incorporated by reference in its entirety). Briefly, human neutrophils (2×10^6 cells/mL) were incubated for 5 minutes in the dark at RT with the NUCLEAR-ID Red DNA dye to stain nuclei (Enzo Life Sciences, Inc.). Cells were washed twice and resuspended in 1 mL of RPMI media. NUCLEAR-ID Red stained-neutrophils were plated (20,000 neutrophils per 100 μL per well) in a 96-well flat microplate. Stimulation of neutrophils NETosis was performed with PMA alone (50 nM), or with PMA in the presence of T1 compound (10 μM) or T3 compound (10 μuM). Unstimulated neutrophils served as a negative control. Neutrophils stimulated with PMA in the presence of Trifluoperazine (Stelazine, 100 ng/ml) were used as positive control. A final concentration of 0.1 μM of the membrane impermeable dsDNA fluorescent Sytox® Green nucleic acid stain (Life Technologies, Inc.) was added to the plated cells concomitantly with the stimuli. Neutrophils were imaged within 10 minutes of plating using phase contrast, red (800 ms exposure) and green (400 ms exposure) channels in the IncuCyte ZOOM™ platform (Essen BioScience, Inc.), located within a cell incubator at 37° C. with 5% CO2. Four image sets from distinct regions per well using a 20x dry objective lens were taken every 20-30 minutes, for 8 hr. For red channel, filters were applied to exclude objects below radius of 10 μm, fluorescence threshold of 0.5 red corrected units, and area of 15 μm^2. The filters applied the green channel excluded objects below the radius of 10 μm, fluorescence threshold of 1.00 green corrected units, and area of 100 μm^2. The green object count divided by the red object count represents the percentage of cells going through NETosis of total neutrophils. Liposome preparation: 2.5% DSPE-PEG3400-Maleimide liposomes were prepared in 250 mM ammonium sulfate. Liposomes were prepared at a molar ration of 56.5:41: 2.5:0.09 of HSPC: Cholesterol: DSPE-PEG-Mal: DilC18 (5)-DS.
Besides degranulation, neutrophils can kill pathogens extracellularly by releasing neutrophil extracellular traps (NETs), a process known as NETosis. Examination of NETosis induced by PMA was monitored by an Incucyte live-cell analysis system (FIG. 4). PMA treatment produced a steady increase in NETosis positive events starting at 2 hours after treatment. […] An increase was only observed after 4 hours when T1 was used and after 5 hours when T3 was used.

[4] = test system: peripheral blood neutrophils; assay: LPS-induced inflammation mouse model, surface CD11b of peripheral blood neutrophils; format: in vivo, Balb/C mice; conditions: LPS 1 mg/kg intraperitoneal; T3 (Z isomer) 3 mg/kg IV after 1 hour; blood after 3 hours
Description: The in-vivo effect of the three compositions of T3 was examined in a mouse model of inflammation. Balb/C mice were intraperitoneal injected with 1 mg/kg of LPS to induce inflammation and neutrophil toxicity. After 1 hour, T3—free molecule, T3 within a liposome, and T3 within a targeted liposome (TENN-T3) were IV administered at a final concentration of 3 mg/kg body weight. After 3 hours 0.5 mL of blood was drawn from each mouse and degranulation of peripheral blood neutrophils was evaluated by flow cytometry analysis of surface CD11b levels (neutrophils were identified by Ly6G staining). […] Overall, it is clear that T3 inhibits neutrophil activation in vivo and that targeting greatly enhances the effect.

DSS colitis model mice = assay: DSS colitis mouse model; format: in vivo, C57BL/6 mice; conditions: 3% DSS 5 days; 2.5 mg/kg of T3 on days 5, 7 and 9
Description: Next, the ability of T3 administration, to treat colitis, a disease caused at least in part by neutrophil cytotoxicity, was tested in a mouse model. Colitis was induced in C57BL/6 mice by administration of 3% dextran sulfate sodium (DSS) for 5 consecutive days in drinking water. 2.5 mg/kg of T3, in its three formulations, was administered on days 5, 7 and 9. Colitis induction by DSS caused a pronounced shortening of the mouse colon.
Lower doses of TENN-T3 were also tested. The targeted liposomes were administered at days 5 and 7 and mice were sacrificed on day 10 and colon length was measured.

human neutrophils [5] = conditions: cited from earlier work; remark: listed apart in the source

## c1ccc2c(c1)[I+]c1ccccc1-2 [DPI, Diphenylenciodonium]
Human neutrophils [1]
  ROS production (known effect): nearly completely abolish ROS production

## CC(C)(C)C(=O)/C(=C/c1cccc([N+](=O)[O-])c1)n1cncn1 [Nexinhib-20]
Human neutrophils [2]
  inhibition of degranulation (known): known to inhibit degranulation

## CCN(CC)CCC(C)(C)C(=O)/C(=C/c1cccc([N+](=O)[O-])c1)n1cncn1 [T1]
Human neutrophils [3]; compound 10 μM
  time after which an increase in NETosis was observed: > 4 h
Human neutrophils [3]
  PMA-induced NETosis (NETosis positive events over time): initially inhibited an increase in NETosis completely

## CN1CCC(N2CCC(C(=O)/C(=C/c3cccc([N+](=O)[O-])c3)n3cncn3)CC2)CC1 [T3]
Human neutrophils [3]; compound 10 μM
  NETosis events compared with control: very similar to control
  time after which an increase in NETosis was observed: > 5 h
Human neutrophils [3]
  PMA-induced NETosis (NETosis positive events over time): initially inhibited an increase in NETosis completely
[4]
  reduction in degranulation (surface CD11b of blood neutrophils): moderate but not statistically significant reduction
DSS colitis model mice
  colon length: comparable to a negative control

## CN1CCN(CCCN2c3ccccc3Sc3ccc(C(F)(F)F)cc32)CC1 [Trifluoperazine, reference compound]
Human neutrophils [3]
  PMA-induced NETosis (NETosis positive events over time): steady reduction
Human neutrophils [5]
  inhibition of NETosis (known): known inhibitor of NETosis
